These are literature values, as cited in patent publication US7094735B2, “Herbicide microemulsion-forming-concentrates, microemulsions, and methods” (priority 2001, dated 2006).

For the data set the following is noted: Table 1, exemplary pKa values of acidic herbicides.
On to `O=C(O)CCCOc1ccc(Cl)cc1Cl` [2,4-DB], for which the pKas is 4.8.
Consider `O=C(O)c1cc(Oc2ccc(C(F)(F)F)cc2Cl)ccc1[N+](=O)[O-]` [Acifluorfen], for which the pKas is reported as 3.86.
Take `N#Cc1cc(Br)c(O)c(Br)c1` [Bromoxynil]: the pKas is 4.06.
For the compound `COc1c(Cl)ccc(Cl)c1C(=O)O` [Dicamba, 3,6-dichloro-O-anisic acid], the pKas was 1.87.
On to `CC(Oc1ccc(Cl)cc1Cl)C(=O)O` (stereo not shown) [Dichlorprop], for which the pKas is given as 2.86.
In the case of `CC(Oc1ccc(Oc2ccc(Cl)cc2Cl)cc1)C(=O)O` (stereo not shown) [Diclofop], the pKas is 3.57.
With `C[C@@H](Oc1ccc(Oc2ccc(C(F)(F)F)cn2)cc1)C(=O)O` [Fluazifop-p], the pKas is listed as 2.98.
For the compound `CC(Oc1ccc(Oc2ncc(C(F)(F)F)cc2Cl)cc1)C(=O)O` (stereo not shown) [Haloxyfop], the pKas is 4.33.
As to `CC(C)C1(C)N=C(c2nc3ccccc3cc2C(=O)O)NC1=O` (stereo not shown) [Imazaquin], the pKas was 3.8.
Take `CCc1cnc(C2=NC(C)(C(C)C)C(=O)N2)c(C(=O)O)c1` (stereo not shown) [Imazethapyr]: the pKas is 3.9.
For the compound `N#Cc1cc(I)c(O)c(I)c1` [Ioxynil], the pKas is reported as 3.96.
Consider `Nc1c(Cl)c(Cl)nc(C(=O)O)c1Cl` [Picloram], for which the pKas is 2.3.
Take `O=C(O)c1c(Cl)ccc2cc(Cl)cnc12` [Quinclorac]: the pKas is 4.34.
`CCC/C(=N\OCC)C1=C(O)CC(CC(C)SCC)CC1=O` (stereo not shown) [Sethoxydim]: the pKas is 4.16.
`O=C(O)COc1nc(Cl)c(Cl)cc1Cl` [Triclopyr, 3,5,6-trichloro-2-pyridyloxyacetic acid]: the pKas is 2.68.
For Imazamethbenz, the pKas is 2.9.
